In patent US20100297692A1, “REACTION MEDIUM FOR DETECTING AND/OR IDENTTIFYING STAPHYLOCCOUS AUREUS” (BIOMERIEUX, priority 2007, published 2010):

Assays:
Assay in all cases: β-D-ribosidase substrates in Columbia agar, colored or fluorescent colonies
S. aureus (MSSA) = assay type: cell-based, Staphylococcus aureus
Protocol: (§1) The media hereinafter were prepared in 200 ml of a Columbia agar base (Oxoid), in combination with the chromogenic β-D-ribosidase substrates. The various substrates and also the concentrations and the additives used in the media are described in Table 1 below:
(§2) The β-D-ribosidase substrates are solubilized in DMSO and added to the media so as to obtain the concentrations indicated in Table 1.
(§3) 191 bacterial strains were inoculated onto each of the media using a suspension at 0.5 MacFarland diluted to 1/1000. The dishes were incubated at 37° C. and then read.
(§4) The media were distributed into Petri dishes, then inoculated with approximately 100 000 CFU, then incubated at 37° C. for 48 h. The colonies formed were examined visually after incubation times of 18, 24 and 48 hours.
(§5) The stock collection of 191 strains comprised: […], 48 Staphylococcus spp, 61 Enterococcus spp and 3 alpha-hemolytic Streptococcus.

S. aureus (MRSA) = assay type: cell-based, Staphylococcus aureus
Protocol: as §1, §2, §3, §4, §5

[1] = tested on: Coagulase-negative Staphylococci; assay type: cell-based, Staphylococcus spp; conditions: Coagulase-negative Staphylococci
Protocol: as §1, §2, §3, §4, §5

Micrococcus luteus = assay type: cell-based
Protocol: [The procedure below names another organism; the source lists this organism under the same test.] as §1, §2, §3, §4, §5

Enterococci = assay type: cell-based, Enterococcus spp
Protocol: as §1, §2, §3, §4, §5

[2] = tested on: Alpha-hemolytic streptococci; assay type: cell-based, alpha-hemolytic Streptococcus
Protocol: as §1, §2, §3, §4, §5

[3] = 400 mg/L + ammoniacal iron citrate 100 mg/l, 18 h
[4] = 400 mg/L + ammoniacal iron citrate 100 mg/l, 24 h
[5] = 400 mg/L + ammoniacal iron citrate 100 mg/l, 48 h

## Dihydroxyflavone-beta-D-riboside [DHF-β-riboside]
S. aureus (MSSA); [3]
  % of strains producing colored or fluorescent colonies: 100%
S. aureus (MSSA); [4]
  % of strains producing colored or fluorescent colonies: 100%
S. aureus (MSSA); [5]
  % of strains producing colored or fluorescent colonies: 100%
S. aureus (MRSA); [3]
  % of strains producing colored or fluorescent colonies: 100%
S. aureus (MRSA); [4]
  % of strains producing colored or fluorescent colonies: 100%
S. aureus (MRSA); [5]
  % of strains producing colored or fluorescent colonies: 100%
[1]; [3]
  % of strains producing colored or fluorescent colonies: 68%
[1]; [4]
  % of strains producing colored or fluorescent colonies: 68%
[1]; [5]
  % of strains producing colored or fluorescent colonies: 91%
Micrococcus luteus; [3]
  % of strains producing colored or fluorescent colonies: 0%
Micrococcus luteus; [4]
  % of strains producing colored or fluorescent colonies: 0%
Micrococcus luteus; [5]
  % of strains producing colored or fluorescent colonies: 0%
Enterococci; [3]
  % of strains producing colored or fluorescent colonies: 30%
Enterococci; [4]
  % of strains producing colored or fluorescent colonies: 30%
Enterococci; [5]
  % of strains producing colored or fluorescent colonies: 48%
[2]; [3]
  % of strains producing colored or fluorescent colonies: 0%
[2]; [4]
  % of strains producing colored or fluorescent colonies: 0%
[2]; [5]
  % of strains producing colored or fluorescent colonies: 0%

## OC[C@H]1O[C@@H](Oc2c[nH]c3cc(Cl)ccc23)[C@H](O)[C@@H]1O [Pink-β-riboside, 6-Chloro-3-indoxyl-beta-D-riboside]
S. aureus (MSSA); 100 mg/L, 18 h
  % of strains producing colored or fluorescent colonies: 64%
S. aureus (MSSA); 100 mg/L, 24 h
  % of strains producing colored or fluorescent colonies: 64%
S. aureus (MSSA); 100 mg/L, 48 h
  % of strains producing colored or fluorescent colonies: 100%
S. aureus (MSSA); 200 mg/L, 18 h
  % of strains producing colored or fluorescent colonies: 57%
S. aureus (MSSA); 200 mg/L, 24 h
  % of strains producing colored or fluorescent colonies: 64%
S. aureus (MSSA); 200 mg/L, 48 h
  % of strains producing colored or fluorescent colonies: 100%
S. aureus (MRSA); 100 mg/L, 18 h
  % of strains producing colored or fluorescent colonies: 91%
S. aureus (MRSA); 100 mg/L, 24 h
  % of strains producing colored or fluorescent colonies: 96%
S. aureus (MRSA); 100 mg/L, 48 h
  % of strains producing colored or fluorescent colonies: 100%
S. aureus (MRSA); 200 mg/L, 18 h
  % of strains producing colored or fluorescent colonies: 84%
S. aureus (MRSA); 200 mg/L, 24 h
  % of strains producing colored or fluorescent colonies: 94%
S. aureus (MRSA); 200 mg/L, 48 h
  % of strains producing colored or fluorescent colonies: 100%
[1]; 100 mg/L, 18 h
  % of strains producing colored or fluorescent colonies: 3%
[1]; 100 mg/L, 24 h
  % of strains producing colored or fluorescent colonies: 3%
[1]; 100 mg/L, 48 h
  % of strains producing colored or fluorescent colonies: 3%
[1]; 200 mg/L, 18 h
  % of strains producing colored or fluorescent colonies: 3%
[1]; 200 mg/L, 24 h
  % of strains producing colored or fluorescent colonies: 3%
[1]; 200 mg/L, 48 h
  % of strains producing colored or fluorescent colonies: 6%
Micrococcus luteus; 100 mg/L, 18 h
  % of strains producing colored or fluorescent colonies: 0%
Micrococcus luteus; 100 mg/L, 24 h
  % of strains producing colored or fluorescent colonies: 0%
Micrococcus luteus; 100 mg/L, 48 h
  % of strains producing colored or fluorescent colonies: 0%
Micrococcus luteus; 200 mg/L, 18 h
  % of strains producing colored or fluorescent colonies: 0%
Micrococcus luteus; 200 mg/L, 24 h
  % of strains producing colored or fluorescent colonies: 0%
Micrococcus luteus; 200 mg/L, 48 h
  % of strains producing colored or fluorescent colonies: 0%
Enterococci; 100 mg/L, 18 h
  % of strains producing colored or fluorescent colonies: 0%
Enterococci; 100 mg/L, 24 h
  % of strains producing colored or fluorescent colonies: 0%
Enterococci; 100 mg/L, 48 h
  % of strains producing colored or fluorescent colonies: 2%
Enterococci; 200 mg/L, 18 h
  % of strains producing colored or fluorescent colonies: 0%
Enterococci; 200 mg/L, 24 h
  % of strains producing colored or fluorescent colonies: 0%
Enterococci; 200 mg/L, 48 h
  % of strains producing colored or fluorescent colonies: 0%
[2]; 100 mg/L, 18 h
  % of strains producing colored or fluorescent colonies: 0%
[2]; 100 mg/L, 24 h
  % of strains producing colored or fluorescent colonies: 0%
[2]; 100 mg/L, 48 h
  % of strains producing colored or fluorescent colonies: 0%
[2]; 200 mg/L, 18 h
  % of strains producing colored or fluorescent colonies: 0%
[2]; 200 mg/L, 24 h
  % of strains producing colored or fluorescent colonies: 0%
[2]; 200 mg/L, 48 h
  % of strains producing colored or fluorescent colonies: 0%
